{"source": "patent US20230364070A1", "about": "“PYRROLO[3,2-C]PYRIDIN-4-ONE DERIVATIVES USEFUL IN THE TREATMENT OF CANCER” (Scorpion Therapeutics, Inc., priority 2020, published 2023)", "format_in_all_cases": "cell-based", "key": {"[1]": {"target": "T1, Ba/F3 cells with EGFR exon 20 NPG Ins D770_N771 (Homo sapiens, UniProt P00533, INS770NPG)", "T1 construct": "expressed in transfected cells; host or cells: Ba/F3 (murine pro-B cells), retroviral transduction, puromycin selection, IL3-independent pool", "T1 sequence (P00533 with tags, fused parts or gaps INS770NPG)": "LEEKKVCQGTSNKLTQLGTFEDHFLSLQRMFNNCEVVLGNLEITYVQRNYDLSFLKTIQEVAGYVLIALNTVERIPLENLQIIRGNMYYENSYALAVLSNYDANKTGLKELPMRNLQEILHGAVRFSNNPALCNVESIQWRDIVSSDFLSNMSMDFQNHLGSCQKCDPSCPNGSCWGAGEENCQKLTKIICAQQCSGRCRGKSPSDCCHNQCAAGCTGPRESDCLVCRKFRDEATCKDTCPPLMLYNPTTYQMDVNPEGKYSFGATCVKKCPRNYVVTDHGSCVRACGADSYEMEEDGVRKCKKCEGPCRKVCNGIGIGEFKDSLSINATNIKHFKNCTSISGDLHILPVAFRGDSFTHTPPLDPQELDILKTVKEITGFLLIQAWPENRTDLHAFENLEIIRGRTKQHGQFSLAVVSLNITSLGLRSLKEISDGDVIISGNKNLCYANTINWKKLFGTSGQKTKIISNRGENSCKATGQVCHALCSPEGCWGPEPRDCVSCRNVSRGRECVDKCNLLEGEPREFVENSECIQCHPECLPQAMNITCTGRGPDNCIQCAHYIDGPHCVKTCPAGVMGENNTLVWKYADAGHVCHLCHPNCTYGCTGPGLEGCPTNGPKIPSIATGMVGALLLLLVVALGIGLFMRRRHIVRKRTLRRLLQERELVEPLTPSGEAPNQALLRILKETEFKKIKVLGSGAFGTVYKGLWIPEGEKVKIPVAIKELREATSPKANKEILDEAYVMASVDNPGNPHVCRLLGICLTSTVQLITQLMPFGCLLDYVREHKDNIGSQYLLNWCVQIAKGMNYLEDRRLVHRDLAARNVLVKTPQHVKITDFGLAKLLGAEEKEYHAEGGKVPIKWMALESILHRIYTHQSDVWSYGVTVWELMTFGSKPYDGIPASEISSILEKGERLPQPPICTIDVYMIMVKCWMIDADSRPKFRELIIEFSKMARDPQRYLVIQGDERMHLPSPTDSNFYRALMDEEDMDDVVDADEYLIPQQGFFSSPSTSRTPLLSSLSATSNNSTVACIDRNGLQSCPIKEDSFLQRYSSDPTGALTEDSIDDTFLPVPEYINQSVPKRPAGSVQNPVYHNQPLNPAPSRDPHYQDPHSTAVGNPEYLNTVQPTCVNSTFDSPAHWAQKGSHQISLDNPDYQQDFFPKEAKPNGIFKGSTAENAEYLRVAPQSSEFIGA", "test": "EGFR activity: Ba/F3 cell viability (CellTiter-Glo, 72 h), EGFR exon 20 NPG insertion", "conditions": "EGFR exon 20 NPG Ins D770_N771, cell viability, read-out: BaF3 NPG IC50"}, "Ba/F3 cells with EGFR WT": {"target": "T2, Ba/F3 cells with EGFR WT (Homo sapiens, UniProt P00533)", "T2 construct": "expressed in transfected cells; host or cells: Ba/F3 (murine pro-B cells), retroviral transduction, puromycin selection, maintained with EGF", "T2 sequence (P00533 25-1210)": "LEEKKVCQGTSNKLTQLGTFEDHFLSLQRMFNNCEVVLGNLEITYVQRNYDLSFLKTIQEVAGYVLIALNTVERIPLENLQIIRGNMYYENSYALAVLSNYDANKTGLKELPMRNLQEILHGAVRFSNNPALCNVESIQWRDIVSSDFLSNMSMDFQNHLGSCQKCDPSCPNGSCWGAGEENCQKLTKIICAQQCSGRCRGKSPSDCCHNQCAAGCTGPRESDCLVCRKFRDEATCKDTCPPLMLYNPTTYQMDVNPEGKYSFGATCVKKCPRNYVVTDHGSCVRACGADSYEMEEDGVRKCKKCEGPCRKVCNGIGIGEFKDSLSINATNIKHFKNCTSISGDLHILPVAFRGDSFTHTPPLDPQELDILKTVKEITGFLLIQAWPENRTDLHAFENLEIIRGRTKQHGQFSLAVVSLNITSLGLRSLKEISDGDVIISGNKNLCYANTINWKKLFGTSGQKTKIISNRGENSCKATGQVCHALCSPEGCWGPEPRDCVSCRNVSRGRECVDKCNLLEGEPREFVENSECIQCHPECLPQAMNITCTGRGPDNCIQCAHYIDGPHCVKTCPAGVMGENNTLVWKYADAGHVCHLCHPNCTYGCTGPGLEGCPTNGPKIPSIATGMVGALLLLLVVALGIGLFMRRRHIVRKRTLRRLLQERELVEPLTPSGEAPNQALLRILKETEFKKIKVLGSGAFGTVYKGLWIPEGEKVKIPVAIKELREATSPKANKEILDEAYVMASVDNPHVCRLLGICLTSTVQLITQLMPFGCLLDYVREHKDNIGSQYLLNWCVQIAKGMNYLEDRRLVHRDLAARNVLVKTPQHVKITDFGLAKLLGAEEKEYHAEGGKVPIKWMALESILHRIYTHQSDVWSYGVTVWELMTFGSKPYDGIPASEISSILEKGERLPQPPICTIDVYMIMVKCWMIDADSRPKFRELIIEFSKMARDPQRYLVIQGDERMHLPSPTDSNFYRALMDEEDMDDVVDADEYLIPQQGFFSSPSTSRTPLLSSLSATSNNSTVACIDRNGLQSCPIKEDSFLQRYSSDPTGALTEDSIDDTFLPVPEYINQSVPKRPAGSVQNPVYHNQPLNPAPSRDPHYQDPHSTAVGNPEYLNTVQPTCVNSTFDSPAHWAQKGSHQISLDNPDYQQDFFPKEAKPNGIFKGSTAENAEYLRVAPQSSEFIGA", "test": "EGFR activity: Ba/F3 cell viability (CellTiter-Glo, 72 h), EGFR WT", "conditions": "read-out: BaF3 WT IC50"}, "[2]": {"target": "T3, pEGFR in Ba/F3 cells expressing EGFR exon 20 NPG Ins D770_N771 (Homo sapiens, UniProt P00533, INS770NPG)", "T3 construct": "expressed in transfected cells; host or cells: Ba/F3 (murine pro-B cells), retroviral transduction, puromycin selection, IL3-independent pool", "T3 sequence (P00533 with tags, fused parts or gaps INS770NPG)": "as the sequence (P00533 with tags, fused parts or gaps INS770NPG) above", "test": "Inhibitor activity on EGFR phosphorylation (pEGFR AlphaLISA, 2 h), Ba/F3 EGFR exon 20 NPG insertion", "conditions": "Ba/F3 EGFR exon 20 NPG Ins D770_N771"}, "[3]": {"target": "T4, Ba/F3 cells with EGFR exon 20 ASV Ins V769_D770 (Homo sapiens, UniProt P00533, INS769ASV)", "T4 construct": "expressed in transfected cells; host or cells: Ba/F3 (murine pro-B cells), retroviral transduction, puromycin selection, IL3-independent pool", "T4 sequence (P00533 with tags, fused parts or gaps INS769ASV)": "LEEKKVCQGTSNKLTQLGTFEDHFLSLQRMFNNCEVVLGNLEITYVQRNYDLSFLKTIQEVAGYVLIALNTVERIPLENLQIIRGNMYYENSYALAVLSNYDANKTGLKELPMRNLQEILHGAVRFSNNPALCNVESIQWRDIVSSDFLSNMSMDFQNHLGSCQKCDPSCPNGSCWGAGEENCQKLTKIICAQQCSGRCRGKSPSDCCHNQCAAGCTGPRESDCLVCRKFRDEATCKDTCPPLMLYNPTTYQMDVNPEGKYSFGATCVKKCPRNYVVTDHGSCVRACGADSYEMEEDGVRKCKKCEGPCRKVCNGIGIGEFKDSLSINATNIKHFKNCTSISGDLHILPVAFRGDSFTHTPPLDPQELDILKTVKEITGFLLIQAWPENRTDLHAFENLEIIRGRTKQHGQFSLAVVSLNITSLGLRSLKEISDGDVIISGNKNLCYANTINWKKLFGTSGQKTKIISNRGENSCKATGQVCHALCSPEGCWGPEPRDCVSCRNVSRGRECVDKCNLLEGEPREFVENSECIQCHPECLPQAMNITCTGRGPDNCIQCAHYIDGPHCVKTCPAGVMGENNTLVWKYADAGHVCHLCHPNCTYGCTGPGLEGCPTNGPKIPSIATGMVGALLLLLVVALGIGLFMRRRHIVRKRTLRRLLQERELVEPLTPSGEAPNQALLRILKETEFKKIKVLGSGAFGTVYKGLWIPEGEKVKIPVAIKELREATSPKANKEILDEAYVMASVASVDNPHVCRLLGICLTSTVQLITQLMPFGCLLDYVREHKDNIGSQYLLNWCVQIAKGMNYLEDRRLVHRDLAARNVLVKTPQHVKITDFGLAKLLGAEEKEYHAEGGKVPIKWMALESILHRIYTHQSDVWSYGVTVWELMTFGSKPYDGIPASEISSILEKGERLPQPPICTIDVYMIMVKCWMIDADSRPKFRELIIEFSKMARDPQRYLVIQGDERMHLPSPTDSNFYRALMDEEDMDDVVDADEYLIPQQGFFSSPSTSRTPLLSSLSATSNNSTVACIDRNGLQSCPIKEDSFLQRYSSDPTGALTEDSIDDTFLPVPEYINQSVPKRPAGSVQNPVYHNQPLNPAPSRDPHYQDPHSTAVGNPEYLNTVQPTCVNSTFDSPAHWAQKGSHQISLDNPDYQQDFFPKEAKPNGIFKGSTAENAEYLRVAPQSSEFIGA", "test": "EGFR activity: Ba/F3 cell viability (CellTiter-Glo, 72 h), EGFR exon 20 ASV insertion", "conditions": "EGFR exon 20 ASV Ins V769_D770, cell viability, read-out: BaF3 ASV IC50"}}, "data": [{"smiles": "COc1c(F)cccc1Nc1c(-c2ccncc2OCC2CCc3nccn32)[nH]c2c1C(=O)NCC2", "note": "(stereo not drawn) [Compound 128, 2-(3-((6,7-dihydro-5H-pyrrolo[1,2-a]imidazol-5-yl)methoxy)pyridin-4-yl)-3-((3-fluoro-2-methoxyphenyl)amino)-1,5,6,7-tetrahydro-4H-pyrrolo[3,2-c]pyridin-4-one]", "values": [{"measurement": "IC50", "setting": "[1]", "value": "> 1", "unit": "µM"}, {"measurement": "IC50", "setting": "Ba/F3 cells with EGFR WT", "value": "> 1", "unit": "µM"}, {"measurement": "IC50", "setting": "[2]", "value": "> 1", "unit": "µM"}]}, {"smiles": "COc1c(F)cccc1Nc1c(-c2ccncc2OCc2nnc3n2CCC3)[nH]c2c1C(=O)NCC2", "note": "[Compound 131, 3-[(3-fluoro-2-methoxyphenyl)amino]-2-(3-[5H,6H,7H-pyrrolo[2,1-c][1,2,4]triazol-3-ylmethoxy]pyridin-4-yl)-1H,5H,6H,7H-pyrrolo[3,2-c]pyridin-4-one]", "values": [{"measurement": "IC50", "setting": "[1]", "value": "> 1", "unit": "µM"}, {"measurement": "IC50", "setting": "Ba/F3 cells with EGFR WT", "value": "> 1", "unit": "µM"}, {"measurement": "IC50", "setting": "[2]", "value": "> 1", "unit": "µM"}]}, {"smiles": "C=CC(=O)N1CCC[C@@H]1COc1cnccc1-c1[nH]c2c(c1Nc1cccc(Cl)c1OC)C(=O)NCC2", "note": "[Compound 138a, 3-[(3-chloro-2-methoxyphenyl)amino]-2-(3-[[(2R)-1-(prop-2-enoyl)pyrrolidin-2-yl]methoxy]pyridin-4-yl)-1H,5H,6H,7H-pyrrolo[3,2-c]pyridin-4-one]", "values": [{"measurement": "IC50", "setting": "[1]", "value": "< 0.1", "unit": "µM"}, {"measurement": "IC50", "setting": "[3]", "value": "< 0.1", "unit": "µM"}, {"measurement": "IC50", "setting": "Ba/F3 cells with EGFR WT", "value": "0.1 to 1", "unit": "µM"}, {"measurement": "IC50", "setting": "[2]", "value": "< 0.1", "unit": "µM"}]}, {"smiles": "C=CC(=O)N1CCC[C@H]1COc1cnccc1-c1[nH]c2c(c1Nc1cccc(Cl)c1OC)C(=O)NCC2", "note": "[Compound 138b, (S)-2-(3-((1-acryloylpyrrolidin-2-yl)methoxy)pyridin-4-yl)-3-((3-chloro-2-methoxyphenyl)amino)-1,5,6,7-tetrahydro-4H-pyrrolo[3,2-c]pyridin-4-one]", "values": [{"measurement": "IC50", "setting": "[1]", "value": "< 0.1", "unit": "µM"}, {"measurement": "IC50", "setting": "[3]", "value": "< 0.1", "unit": "µM"}, {"measurement": "IC50", "setting": "Ba/F3 cells with EGFR WT", "value": "0.1 to 1", "unit": "µM"}, {"measurement": "IC50", "setting": "[2]", "value": "< 0.1", "unit": "µM"}]}, {"smiles": "CCC(=O)N1CCC[C@H]1COc1cnccc1-c1[nH]c2c(c1Nc1cccc(Cl)c1OC)C(=O)NCC2", "note": "[Compound 139, (S)-3-((3-chloro-2-methoxyphenyl)amino)-2-(3-((1-propionylpyrrolidin-2-yl)methoxy)pyridin-4-yl)-1,5,6,7-tetrahydro-4H-pyrrolo[3,2-c]pyridin-4-one]", "values": [{"measurement": "IC50", "setting": "[1]", "value": "> 1", "unit": "µM"}, {"measurement": "IC50", "setting": "[3]", "value": "> 1", "unit": "µM"}, {"measurement": "IC50", "setting": "Ba/F3 cells with EGFR WT", "value": "> 1", "unit": "µM"}, {"measurement": "IC50", "setting": "[2]", "value": "0.1 to 1", "unit": "µM"}]}, {"smiles": "COc1c(Cl)cccc1Nc1c(-c2ccncc2OC[C@@H]2CCCN2C(C)=O)[nH]c2c1C(=O)NCC2", "note": "[Compound 141a, (S)-2-(3-((1-acetylpyrrolidin-2-yl)methoxy)pyridin-4-yl)-3-((3-chloro-2-methoxyphenyl)amino)-1,5,6,7-tetrahydro-4H-pyrrolo[3,2-c]pyridin-4-one]", "values": [{"measurement": "IC50", "setting": "[1]", "value": "> 1", "unit": "µM"}, {"measurement": "IC50", "setting": "Ba/F3 cells with EGFR WT", "value": "> 1", "unit": "µM"}, {"measurement": "IC50", "setting": "[2]", "value": "0.1 to 1", "unit": "µM"}]}, {"smiles": "COc1c(Cl)cccc1Nc1c(-c2ccncc2OC[C@H]2CCCN2C(C)=O)[nH]c2c1C(=O)NCC2", "note": "[Compound 141b, 2-(3-[[(2R)-1-acetylpyrrolidin-2-yl]methoxy]pyridin-4-yl)-3-[(3-chloro-2-methoxyphenyl)amino]-1H,5H,6H,7H-pyrrolo[3,2-c]pyridin-4-one]", "values": [{"measurement": "IC50", "setting": "[1]", "value": "> 1", "unit": "µM"}, {"measurement": "IC50", "setting": "Ba/F3 cells with EGFR WT", "value": "> 1", "unit": "µM"}, {"measurement": "IC50", "setting": "[2]", "value": "< 0.1", "unit": "µM"}]}, {"smiles": "COc1c(F)cccc1Nc1c(-c2ccncc2OCn2nnc3ccccc32)[nH]c2c1C(=O)NCC2", "note": "[Compound 479, 2-[3-(1,2,3-benzotriazol-1-ylmethoxy)pyridin-4-yl]-3-[(3-fluoro-2-methoxyphenyl)amino]-1H,5H,6H,7H-pyrrolo[3,2-c]pyridin-4-one]", "values": [{"measurement": "IC50", "setting": "[1]", "value": "> 1", "unit": "µM"}, {"measurement": "IC50", "setting": "Ba/F3 cells with EGFR WT", "value": "> 1", "unit": "µM"}, {"measurement": "IC50", "setting": "[2]", "value": "0.1 to 1", "unit": "µM"}]}, {"smiles": "COc1c(F)cccc1Nc1c(-c2ccncc2OCc2nccn2C)[nH]c2c1C(=O)NCC2", "note": "[Compound 482, 3-[(3-fluoro-2-methoxyphenyl)amino]-2-[3-[(1-methylimidazol-2-yl)methoxy]pyridin-4-yl]-1H,5H,6H,7H-pyrrolo[3,2-c]pyridin-4-one]", "values": [{"measurement": "IC50", "setting": "[1]", "value": "0.1 to 1", "unit": "µM"}, {"measurement": "IC50", "setting": "Ba/F3 cells with EGFR WT", "value": "> 1", "unit": "µM"}, {"measurement": "IC50", "setting": "[2]", "value": "< 0.1", "unit": "µM"}]}, {"smiles": "COc1c(F)cccc1Nc1c(-c2ccncc2OCC2CCc3ncnn32)[nH]c2c1C(=O)NCC2", "note": "(stereo not drawn) [compound 133]", "values": [{"measurement": "IC50", "setting": "[1]", "value": "0.1 to 1", "unit": "µM"}, {"measurement": "IC50", "setting": "Ba/F3 cells with EGFR WT", "value": "> 1", "unit": "µM"}, {"measurement": "IC50", "setting": "[2]", "value": "< 0.1", "unit": "µM"}]}, {"smiles": "COc1c(Cl)cccc1Nc1c(-c2ccncc2OC[C@@H]2CCN2S(C)(=O)=O)[nH]c2c1C(=O)NCC2", "note": "[compound 192, 3-[(3-chloro-2-methoxyphenyl)amino]-2-(3-{[(2S)-1-methanesulfonylazetidin-2-yl]methoxy}pyridin-4-yl)-1H,5H,6H,7H-pyrrolo[3,2-c]pyridin-4-one]", "values": [{"measurement": "IC50", "setting": "[2]", "value": "< 0.1", "unit": "µM"}]}, {"smiles": "COc1c(Cl)cccc1Nc1c(-c2ccncc2OC[C@@H]2CN(C(C)=O)CCO2)[nH]c2c1C(=O)NCC2", "note": "[compound 195, 2-(3-{[(2S)-4-acetylmorpholin-2-yl]methoxy}pyridin-4-yl)-3-[(3-chloro-2-methoxyphenyl)amino]-1H,5H,6H,7H-pyrrolo[3,2-c]pyridin-4-one]", "values": [{"measurement": "IC50", "setting": "[2]", "value": "< 0.1", "unit": "µM"}]}, {"smiles": "C=CC(=O)N1CCC[C@H]1COc1cnccc1-c1[nH]c2c(c1Nc1cccc(F)c1OC)C(=O)NCC2", "note": "[compound 212, 3-[(3-fluoro-2-methoxyphenyl)amino]-2-(3-{[(2S)-1-(prop-2-enoyl)pyrrolidin-2-yl]methoxy}pyridine-4-yl)-1H,5H,6H,7H-pyrrolo[3,2-c]pyridin-4-one]", "values": [{"measurement": "IC50", "setting": "[2]", "value": "< 0.1", "unit": "µM"}]}, {"smiles": "C=CC(=O)N1CCC[C@@]1(C)C#Cc1cnccc1-c1[nH]c2c(c1Nc1cccc(F)c1OC)C(=O)NCC2", "note": "[compound 246, 3-[(3-fluoro-2-methoxyphenyl)amino]-2-(3-{2-[(2S)-2-methyl-1-(prop-2-enoyl)pyrrolidin-2-yl]ethynyl}pyridin-4-yl)-1H,5H,6H,7H-pyrrolo[3,2-c]pyridin-4-one]", "values": [{"measurement": "IC50", "setting": "[2]", "value": "< 0.1", "unit": "µM"}]}, {"smiles": "COc1c(Cl)cccc1Nc1c(-c2ccncc2OCc2ccco2)[nH]c2c1C(=O)NCC2", "note": "[compound 471, 3-[(3-chloro-2-methoxyphenyl)amino]-2-[3-(furan-2-ylmethoxy)pyridin-4-yl]-1H,5H,6H,7H-pyrrolo[3,2-c]pyridin-4-one]", "values": [{"measurement": "IC50", "setting": "[2]", "value": "> 1", "unit": "µM"}]}, {"smiles": "COc1c(F)cccc1Nc1c(-c2ccncc2Oc2cnn(C)c2)[nH]c2c1C(=O)NCC2", "note": "[compound 484, 3-[(3-fluoro-2-methoxyphenyl)amino]-2-[3-[(1-methylpyrazol-4-yl)oxy]pyridin-4-yl]-1H,5H,6H,7H-pyrrolo[3,2-c]pyridin-4-one]", "values": [{"measurement": "IC50", "setting": "[2]", "value": "> 1", "unit": "µM"}]}, {"smiles": "COc1c(Cl)cccc1Nc1c(-c2ccncc2C#C[C@H]2COCCN2C)[nH]c2c1C(=O)NCC2", "note": "[compound 494, 3-[(3-chloro-2-methoxyphenyl)amino]-2-(3-[2-[(3S)-4-methylmorpholin-3-yl]ethynyl]pyridin-4-yl)-1H,5H,6H,7H-pyrrolo[3,2-c]pyridin-4-one]", "values": [{"measurement": "IC50", "setting": "[2]", "value": "< 0.1", "unit": "µM"}]}, {"smiles": "C=CC(=O)N1CCOC[C@H]1C#Cc1cnccc1-c1[nH]c2c(c1Nc1cccc(Cl)c1OC)C(=O)NCC2", "note": "[compound 514, 3-[(3-chloro-2-methoxyphenyl)amino]-2-(3-{2-[(3R)-4-(prop-2-enoyl)morpholin-3-yl]ethynyl}pyridin-4-yl)-1H,5H,6H,7H-pyrrolo[3,2-c]pyridin-4-one]", "values": [{"measurement": "IC50", "setting": "[2]", "value": "< 0.1", "unit": "µM"}]}, {"smiles": "C=CC(=O)N1CCOC[C@@H]1C#Cc1cnccc1-c1[nH]c2c(c1Nc1cccc(Cl)c1OC)C(=O)NCC2", "note": "[compound 515, 3-[(3-chloro-2-methoxyphenyl)amino]-2-(3-{2-[(3S)-4-(prop-2-enoyl)morpholin-3-yl]ethynyl}pyridine-4-yl)-1H,5H,6H,7H-pyrrolo[3,2-c]pyridin-4-one]", "values": [{"measurement": "IC50", "setting": "[2]", "value": "< 0.1", "unit": "µM"}]}]}
